One assay addresses USP30 (Homo sapiens (Human), UniProt Q70CQ3). Briefly: USP30 biochemical IC50 assay (fluorescence polarisation). Here is the method: It is generally desirable to maximise the potency of a drug molecule against the target enzyme in relevant assays in order to lower the effective/efficacious dosage that is to be administered to patients. Compounds of the invention may be tested for USP30 affinity using the in vitro biochemical fluorescence polarization (FP) assay described herein.
Dilution plates were prepared at 21 times the final concentration (2100 µM for a final concentration of 100 µM) in 50% DMSO in a 96-well polypropylene V-bottom plate (Greiner #651201). A typical 8-point dilution series would be 100, 30, 10, 3, 1, 0.3, 0.1, 0.03 µM final. Reactions were performed in duplicate in black 384 well plates (small volume, Greiner 784076) in a final reaction volume of 21 µl. Either 1 µl of 50% DMSO or diluted compound was added to the plate. USP30 (Boston Biochem #E582) was diluted in reaction buffer (40 mM Tris, pH 7.5, 0.005% Tween 20, 0.5 mg/ml BSA, 5 mM beta-mercaptoethanol) to achieve a final assay concentration of 4 nM, and 10 µl of diluted USP30 was added to the compound. Enzyme and compound were incubated for 30 min at room temp. Reactions were initiated by the addition of 50 nM of TAMRA labelled peptide linked to ubiquitin via an iso-peptide bond as fluorescence polarisation substrate. Reactions were read immediately after addition of substrate and following a 2-hour incubation at room temperature. Readings were performed on a Pherastar Plus (BMG Labtech). λ Excitation 540 nm; λ Emission 590 nm.

The next assay has as its target UCHL1 (Homo sapiens (Human), UniProt P09936). Kind of assay: UCHL1 DUB IC50. The format is biochemical. Particulars: for DUB selectivity preference for USP30 v UCHL1: fold.
The subject of assay [1] is USP2, USP6, USP10, USP15, USP16, USP21, USP25, USP28, USP46/UAF1. Kind of assay: DUB selectivity panel IC50. The format is biochemical. As to conditions: for DUB selectivity preference for USP30 v 9 DUBs: fold, minimum over nine DUBs; for IC50: range over the nine DUBs.
For a further assay, the target named is Cathepsin B (Homo sapiens (Human), UniProt P07858). Kind of assay: Cathepsin B IC50. Type of assay: biochemical.
Another assay deals with Cathepsin K (Homo sapiens (Human), UniProt P43235). Kind of assay: Cathepsin K IC50. Type of assay: biochemical.
Cathepsin K, sequence (P43235 115-329, species assumed): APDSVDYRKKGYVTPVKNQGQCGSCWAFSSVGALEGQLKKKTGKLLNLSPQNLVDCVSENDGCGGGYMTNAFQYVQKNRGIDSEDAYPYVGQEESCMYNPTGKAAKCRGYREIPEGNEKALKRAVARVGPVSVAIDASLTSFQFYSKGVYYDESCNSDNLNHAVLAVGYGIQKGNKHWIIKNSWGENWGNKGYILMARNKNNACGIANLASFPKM
The next assay has as its target Cathepsin L (Homo sapiens (Human), UniProt P07711). Briefly: Cathepsin L IC50. The format is biochemical.
In another assay the target is Cathepsin S (Homo sapiens (Human), UniProt P25774). Kind of assay: Cathepsin S IC50. Type of assay: biochemical.
Cathepsin S, sequence (P25774 115-331, species assumed): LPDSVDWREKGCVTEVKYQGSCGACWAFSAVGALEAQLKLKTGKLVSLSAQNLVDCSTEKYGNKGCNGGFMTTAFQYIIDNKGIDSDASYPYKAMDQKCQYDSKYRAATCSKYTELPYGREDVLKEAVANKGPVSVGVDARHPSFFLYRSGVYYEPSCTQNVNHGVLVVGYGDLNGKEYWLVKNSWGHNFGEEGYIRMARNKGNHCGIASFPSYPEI
For another assay, the target named is Cathepsin V (Homo sapiens (Human), UniProt O60911). Kind of assay: Cathepsin V IC50. Type of assay: biochemical.
Cathepsin V, sequence (O60911 114-334, species assumed): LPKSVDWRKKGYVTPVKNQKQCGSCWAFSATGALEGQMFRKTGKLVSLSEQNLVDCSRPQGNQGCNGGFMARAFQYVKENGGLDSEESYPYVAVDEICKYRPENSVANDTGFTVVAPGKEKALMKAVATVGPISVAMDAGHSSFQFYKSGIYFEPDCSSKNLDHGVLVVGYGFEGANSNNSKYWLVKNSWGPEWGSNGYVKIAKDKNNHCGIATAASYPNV
In assay [2] the test system is cathepsins (B, K, L, S and V). Kind of assay: Cathepsin panel summary. The format is biochemical. Particulars: for Selectivity preference for USP30 v cathepsins: fold; for IC50: summary over the five cathepsins.
Setting [3] is: reference examples, USP30 biochemical IC50 assay, read-out: USP30 IC50.
Where [4] appears, read: USP30 biochemical IC50 assay, read-out: IC50.

Where two headings read alike, the source gives them in different places.

USP30, sequence (Q70CQ3 57-517): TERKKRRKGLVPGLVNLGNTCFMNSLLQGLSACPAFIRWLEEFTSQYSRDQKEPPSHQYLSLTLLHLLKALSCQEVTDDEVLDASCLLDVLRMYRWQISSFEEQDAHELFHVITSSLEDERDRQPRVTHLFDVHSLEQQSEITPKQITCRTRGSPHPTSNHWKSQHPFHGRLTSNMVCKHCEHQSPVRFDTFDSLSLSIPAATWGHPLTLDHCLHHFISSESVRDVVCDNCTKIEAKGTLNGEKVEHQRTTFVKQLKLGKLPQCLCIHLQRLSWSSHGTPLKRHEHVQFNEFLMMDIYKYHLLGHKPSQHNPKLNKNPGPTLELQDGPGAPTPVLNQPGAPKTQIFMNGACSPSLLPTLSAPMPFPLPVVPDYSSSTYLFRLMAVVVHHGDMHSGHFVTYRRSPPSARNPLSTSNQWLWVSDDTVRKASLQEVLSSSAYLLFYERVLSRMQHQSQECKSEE
UCHL1, sequence (P09936 whole entry, species assumed): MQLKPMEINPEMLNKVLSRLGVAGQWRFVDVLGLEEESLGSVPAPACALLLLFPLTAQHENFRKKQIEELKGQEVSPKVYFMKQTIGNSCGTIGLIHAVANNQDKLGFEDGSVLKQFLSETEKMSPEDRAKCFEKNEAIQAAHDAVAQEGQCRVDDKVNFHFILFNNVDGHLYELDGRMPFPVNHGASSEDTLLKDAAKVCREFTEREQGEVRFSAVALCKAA
Cathepsin L, sequence (P07711 114-333, species assumed): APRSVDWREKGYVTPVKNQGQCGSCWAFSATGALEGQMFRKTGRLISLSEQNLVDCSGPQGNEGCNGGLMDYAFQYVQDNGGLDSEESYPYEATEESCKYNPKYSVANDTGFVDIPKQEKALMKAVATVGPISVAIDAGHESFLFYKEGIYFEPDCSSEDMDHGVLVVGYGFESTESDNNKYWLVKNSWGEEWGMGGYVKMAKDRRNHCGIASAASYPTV

Regarding `COc1cc(-c2cnc(NC(=O)[C@H]3CCN(C#N)C3)s2)ccc1C#N` [C, reference compound], the IC50 was determined as 0.16 µM on USP30 (read-out: DUB IC50 USP30), 0.16 µM at USP30 (setting [3]) and 0.21 µM at UCHL1. Moreover, the “DUB selectivity preference for USP30 v UCHL1” value at UCHL1 is 1.3.

`N#Cc1ccc(-c2cnc(NC(=O)[C@H]3CCN(C#N)C3)s2)cc1OC(F)(F)F` [B, reference compound]: at UCHL1, the IC50 amounted to 0.52 µM and the “DUB selectivity preference for USP30 v UCHL1” value came to 3.0.

In the case of `COC[C@@H]1C[C@@H](NC(=O)c2ncc(-c3cc(C#N)ccc3OC(F)(F)F)o2)CN1C#N` [Example 7, 5-(5-cyano-2-(trifluoromethoxy)phenyl)-N-((3R,5S)-1-cyano-5-(methoxymethyl)pyrrolidin-3-yl)oxazole-2-carboxamide], the IC50 was 0.003 µM at USP30 (setting [4]); 0.003 µM at USP30 (read-out: DUB IC50 USP30); more than 300 µM against UCHL1; 60.9 µM against Cathepsin B; 14.9 µM at Cathepsin K; 13.8 µM against Cathepsin L. In addition, the figures for the half-inhibitory concentration (IC50) (at Cathepsin S; against Cathepsin V; in [2]) were more than 30 µM, 12.1 µM and not below 12.1 µM, respectively. The “DUB selectivity preference for USP30 v 9 DUBs” value in [1] was not below 1333. For the same molecule, in [2], the “Selectivity preference for USP30 v cathepsins” value is given as not below 4033.

Regarding `COC[C@H]1C[C@@H](NC(=O)c2nc(-c3cc(C#N)ccc3OC3CC3)co2)CN1C#N` [Example 12, 4-(5-cyano-2-cyclopropoxyphenyl)-N-((3R,5R)-1-cyano-5-(methoxymethyl)pyrrolidin-3-yl)oxazole-2-carboxamide], the concentration for half-maximal inhibition (IC50) at USP30 (setting [4]) is 0.068 µM; at UCHL1 it was more than 300 µM; at Cathepsin B it was more than 300 µM; at Cathepsin K, more than 300 µM; against Cathepsin L, more than 300 µM; against Cathepsin S, more than 300 µM. Besides, the values for the IC50 (against Cathepsin V; in assay [2]) were 190 µM and not below 189 µM, respectively. Besides, in assay [1], the “DUB selectivity preference for USP30 v 9 DUBs” value is not below 110. Further, the results for the “DUB selectivity preference for USP30 v UCHL1” value on UCHL1 and on UCHL1 (listed as Ex. 12) were “greater than 4412” and more than 4412, respectively. For the same molecule, the “Selectivity preference for USP30 v cathepsins” value in assay [2] was not below 2788.

For `COC[C@H]1C[C@@H](NC(=O)c2ncc(-c3cc(C#N)ccc3OC3CC3)o2)CN1C#N` [Example 11, 5-(5-cyano-2-cyclopropoxyphenyl)-N-((3R,5R)-1-cyano-5-(methoxymethyl)pyrrolidin-3-yl)oxazole-2-carboxamide], the IC50 at USP30 (setting [4]) is 0.01 µM; against UCHL1, more than 300 µM; against Cathepsin B it was 83 µM; against Cathepsin K, 100 µM; against Cathepsin L it was 15.4 µM; against Cathepsin S, 130 µM. The values for the IC50 (against Cathepsin V; in assay [2]) were more than 100 µM and not below 15.4 µM, respectively. In addition, the “DUB selectivity preference for USP30 v 9 DUBs” value in assay [1] is not below 7820. The “Selectivity preference for USP30 v cathepsins” value in [2] is recorded as not below 1540.

For `COC[C@@H]1C[C@@H](NC(=O)c2nc(-c3cc(C#N)ccc3OC)co2)CN1C#N` [Example 6, 4-(5-cyano-2-methoxyphenyl)-N-((3R,5S)-1-cyano-5-(methoxymethyl)pyrrolidin-3-yl)oxazole-2-carboxamide], the 50% inhibitory concentration (IC50) was 0.002 µM on USP30 (setting [4]); 0.002 µM at USP30 (read-out: DUB IC50 USP30); 1.4 to 258 µM in assay [1]; more than 300 µM on UCHL1; 52.1 µM against Cathepsin B; 40.4 µM against Cathepsin K. The IC50 is 39.8 µM at Cathepsin L, 64.8 µM against Cathepsin S, 91.6 µM on Cathepsin V and not below 39.8 µM in [2]. The “DUB selectivity preference for USP30 v 9 DUBs” value in [1] is not below 700. Besides, in [2], the “Selectivity preference for USP30 v cathepsins” value is given as not below 19900.

On to `COc1ccc(C#N)cc1-c1cnc(C(=O)N[C@@H]2C[C@@H](C)N(C#N)C2)o1` [Example 4, 5-(5-cyano-2-methoxyphenyl)-N-((3R,5R)-1-cyano-5-methylpyrrolidin-3-yl)oxazole-2-carboxamide], for which the IC50 was more than 300 µM on UCHL1; more than 300 µM on Cathepsin B; 165 µM against Cathepsin K; 294 µM against Cathepsin L; more than 300 µM against Cathepsin S; more than 300 µM against Cathepsin V.

For `COc1cccc(-c2cc(C(=O)N[C@@H]3CCN(C#N)C3)on2)c1` [Reference Example A, reference compound], the IC50 on USP30 (read-out: DUB IC50 USP30) was 0.068 µM; on USP30 (setting [3]) it was 0.068 µM; in [1] it was 0.15 to 22.4 µM; against Cathepsin L, 2.9 µM; in assay [2] it was 0.79 to 8.8 µM. Further, in [1], the “DUB selectivity preference for USP30 v 9 DUBs” value is given as not below 2.2. Besides, at Cathepsin K, the “fold more potent against USP30 than against cathepsin K” value is 11.6 fold. Also, the “Selectivity preference for USP30 v cathepsins” value in assay [2] was 11.6 - 129.

Take `CC1CC(C(=O)Nc2ncc(-c3ccccc3)s2)CN1C#N` (centres unmarked) [Reference Example E, reference compound]: the “DUB selectivity preference for USP30 v UCHL1” value on UCHL1 stood at 1.5.

In the case of `C[C@@H]1C[C@@H](NC(=O)c2ncc(-c3cc(C#N)ccc3OC(F)(F)F)o2)CN1C#N` [Example 8, 5-(5-cyano-2-(trifluoromethoxy)phenyl)-N-((3R,5R)-1-cyano-5-methylpyrrolidin-3-yl)oxazole-2-carboxamide], at USP30 (setting [4]), the IC50 amounted to 0.004 µM.

As for `N#CN1CC[C@H](C(=O)Nc2ncc(-c3ccccc3)s2)C1` [D, reference compound], the “DUB selectivity preference for USP30 v UCHL1” value on UCHL1 is 0.8.

As to `COC[C@@H]1C[C@@H](NC(=O)c2nc(-c3cc(C#N)ccc3OC3CC3)co2)CN1C#N` [Example 10, 4-(5-cyano-2-cyclopropoxyphenyl)-N-((3R,5S)-1-cyano-5-(methoxymethyl)pyrrolidin-3-yl)oxazole-2-carboxamide], the IC50 on USP30 (setting [4]) is 0.004 µM.

Consider `COc1cc(F)c(C#N)cc1-c1cnc(C(=O)N[C@@H]2C[C@@H](C)N(C#N)C2)o1` [Example 9, 5-(5-cyano-4-fluoro-2-methoxyphenyl)-N-((3R,5R)-1-cyano-5-methylpyrrolidin-3-yl)oxazole-2-carboxamide], for which, on USP30 (setting [4]), the IC50 turned out to be 0.002 µM.

In the case of `COC[C@@H]1C[C@@H](NC(=O)c2ncc(-c3cc(C#N)ccc3OC)o2)CN1C#N` [Example 5, 5-(5-cyano-2-methoxyphenyl)-N-((3R,5S)-1-cyano-5-(methoxymethyl)pyrrolidin-3-yl)oxazole-2-carboxamide], the IC50 on USP30 (setting [4]) amounted to 0.003 µM.
